From patent US5650415A, “Quinoline compounds” (Sugen, Inc., priority 1995, dated 1997)

Tested on: HER2
Test: HER2 whole cell kinase ELISA (second HER2 column of Table 1)
Type: cell-based
Conditions: cell line not given
Description: The following examples illustrates the ability of the exemplary compounds to inhibit receptor tyrosine kinases, such as HER2 and/or EGFR. The following target cells were used for cellular kinase assays: NIH3T3 clone C7 (Honegger et al., supra) engineered to over-express human EGF receptor; NIH3T3 cells engineered to over-express a chimeric receptor containing the EGFR extracellular domain and the HER2 intracellular kinase domain; the human mammary carcinoma line BT474 (ATCC HTB2) expressing HER2; and the human glioblastoma line U1242 that expresses PDGFR-beta. Growth assays were carried out using human mammary epithelial SKBR3 (ATCC HTB30) cells (SKBR3 cells over-express HER2), SKOV3 (AT(D(D HTB77) human ovarian cancer cell line (SKOV3 cells also over-express HER2), A431 cells (A431 cells over-express EGFR) MCF7 human breast carcinoma cells, MCF7 cells overexpressing the HER2 kinase (MCF7-HER2), NIH3T3 cells, and NIH3T3 cells overexpressing the HER2 kinase (3T3-HER2. EGFR-HER2 Chimeric Recetor HER2 kinase activity (EGFR-3T3) in whole cells was measured as described below: HER2-ELISA HER2-BT474 assays measuring whole cell HER2 activity was carried out as described below: 1. The cell line used in this assay is BT-474 (ATCC HBT20), a human breast tumor cell line which expresses high levels of HER2 kinase. 2. BT-474 is grown in an incubator with 5% CO2 at 37° C. The growth media is RPMI+10% FBS+GMS-G (Gibco supplement)+Glutamine. 3. A monoclonal anti-HER2 antibody is used in ELISA. (a) Grow BT474 cells in tissue culture dishes (10 cm, Corning 25020-100) to 80-90% confluence and collect using Trypsin-EDTA (0.25%, GIBCO). (b) Resuspend the cells in fresh medium and transfer to 96-well tissue culture plates (Corning, 25806-96) at about 25,000-50,000 cells/well (100 μl/well). Incubate the cells in 5% CO2 at 37° C. overnight. (a) Coat the ELISA plate (Corning 25805-96) with anti HER2 antibody at 0.5 μg/well in 150 μl PBS overnight at 4.sunburst. C., and seal with parafilm. The antibody coated plates can be used up to 2 weeks, when stored at 4° C. (b) On the day of use, remove the coating solution, replace with 200 μl of Blocking Buffer, shake the plate, and then remove the blocking buffer and wash the plate just before adding lysate. (a) TBST the drugs in serum-free condition. Before adding drugs, the old media (b) Dilute drug stock (in 100% DMSO) 1:10 with RPMI, and transfer 10 μl/well of this solution to the cells to achieve a final drug DMSO concentration at 1%. Incubate the cells in 5% CO2 at 37° C. (d) After drug preincubation for two hours remove all the solution from the plate, transfer HNTG* 100 μl/well to the cells, and shake for 10 minutes. (e) Use a 12-channel pipette to scrape the cells from the plate, and homogenize the lysate by repeat aspiration and dispensing. Transfer all the lysate to the ELISA plate and shake for 1 hour. (f) Remove the lysate, wash the plate, add anti-pTyr (1:3,000 with TBST) 100 μl/well, and shake for 30 minutes. (g) Remove anti-pTyr, wash the plate, add goat anti-rabbit IgG conjugated antibody (1:5,000 with TBST) 100 μl/well, and shake for 30 minutes. (h) Remove anti-rabbit IgG antibody, wash the plate, and add fresh ABTS/H2 O2 (1.2 μl H2 O2 to 10 ml ABTS) 100 l/we1l to the plate to start color development, which usually takes 20 minutes. (i) Measure OD 410 nm, Dynatec MR5000.

Row | IC50 | Structure (SMILES)
1 | > 75 µM | CCOC(=O)c1cnc2ccc(C(F)(F)F)cc2c1Nc1cccc(Cl)c1 [Compound A728, 4-(3-Chlorophenylamino)-3-ethoxycarbonyl-6-trifluoromethylquinoline]
2 | > 100 µM | CCOC(=O)c1cnc2ccc(C(F)(F)F)cc2c1Nc1ccc(OC)c(OC)c1 [Compound A726, 3-Ethoxycarbonyl-4-(3,4-dimethoxyphenylamino)-6-trifluoromethylquinoline]
3 | > 10 µM | CCOC(=O)c1cnc2ccc(C(F)(F)F)cc2c1Nc1ccc(Br)cc1 [Compound A727, 4-(4-Bromophenylamino)-3-ethoxycarbonyl-6-trifluoromethylquinoline]
4 | > 100 µM | CCOC(=O)c1cnc2ccc(C(F)(F)F)cc2c1Nc1ccc(Cl)cc1 [Compound A729, 4-(4-Chlorophenylamino)-3-ethoxycarbonyl-6-trifluoromethylquinoline]

Second part, the molecule before the results:

Row | Structure (SMILES) | IC50
5 | CCOC(=O)c1cnc2ccc(C(F)(F)F)cc2c1Nc1cccc(Br)c1 [Compound A716, 4-(3-Bromophenylamino)-3-ethoxycarbonyl-6-trifluoromethylquinoline] | > 100 µM
6 | CCOC(=O)c1cnc2ccc(C(F)(F)F)cc2c1Nc1cccc(C(F)(F)F)c1 [Compound A721, 3-Ethoxycarbonyl-4-(3-trifluoromethylphenylamino)-6-trifluoromethylquinoline] | > 100 µM
7 | CCOC(=O)c1cnc2ccc(C(F)(F)F)cc2c1Nc1ccc(C#N)cc1 [Compound A725, 4-(4-Cyanophenylamino)-3-ethoxycarbonyl-6-trifluoromethylquinoline] | > 100 µM
8 | CCOC(=O)c1cnc2ccc(C(F)(F)F)cc2c1NCc1cccc(C(F)(F)F)c1 [Compound A718, 3-Ethoxycarbonyl-4-(3-trifluoromethylbenzylamino)-6-trifluoromethylquinoline] | > 50 µM
9 | CCOC(=O)c1cnc2ccc(C(F)(F)F)cc2c1NCc1ccccc1C(F)(F)F [Compound A717, 3-Ethoxycarbonyl-4-(2-trifluoromethylbenzylamino)-6-trifluoromethylquinoline] | > 100 µM
10 | CCOC(=O)c1cnc2ccc(C(F)(F)F)cc2c1Nc1ccccc1C(F)(F)F [Compound A720, 3-Ethoxycarbonyl-4-(2-trifluoromethylphenylamino)-6-trifluoromethylquinoline] | > 100 µM
11 | CCOC(=O)c1cnc2c(F)ccc(F)c2c1Sc1cccc(C(F)(F)F)c1 [Compound A713, 3-Ethoxycarbonyl-5,8-difluoro-4-(3-trifluoromethylphenylmercapto)quinoline] | 36 µM
12 | CCOC(=O)c1cnc2ccc(C(F)(F)F)cc2c1NCc1ccc(C(F)(F)F)cc1 [Compound A719, 3-Ethoxycarbonyl-4-(4-trifluoromethylbenzylamino)-6-trifluoromethylquinoline] | > 100 µM
13 | CCOC(=O)c1cnc2ccc(C(F)(F)F)cc2c1Nc1ccccc1C#N [Compound A723, 4-(2-Cyanophenylamino)-3-ethoxycarbonyl-6-trifluoromethylquinoline] | > 10 µM
14 | CCOC(=O)c1cnc2ccc(C(F)(F)F)cc2c1Nc1ccc(C(F)(F)F)cc1 [Compound A722, 3-Ethoxycarbonyl-4-(4-trifluoromethylphenylamino)-6-trifluoromethylquinoline] | > 100 µM
